{
  "source": "patent US10874684B2",
  "about": "“Liponucleotide-based therapy for ARDS” (Ohio State Innovation Foundation, priority 2016, dated 2020)",
  "key": {"[1]": {"test_system": "influenza A/WSN/33 (H1N1)-infected mice", "assay": "Effect of influenza infection and i.p. liponucleotide treatment on lung function", "assay_type": "in vivo, mouse", "conditions": "for CST / HR (bpm) / RBASAL / SaO2 (%) / WET:DRY: day 6", "description": "CDP-choline improved oxygenation. SaO2 increased from approximately 85% to approximately 96%. This is equivalent to an increase in PaO2 from approximately 65 mmHg to approximately 85 mmHg. It is also equivalent to an increase in O2 carrying capacity of blood (CaO2) from approximately 88% to approximately 97% of normal. Patients with an SaO2 of 96% or a […] would not require additional treatment"}, "[2]": {"test_system": "ATII cells from influenza A/WSN/33 (H1N1)-infected mice", "assay": "Effect of influenza infection and CDP-choline treatment on ATII cell ultrastructure (transmission electron micrographs)", "assay_type": "in vivo, mouse", "description": "FIG. 14 is a group of three transmission electron micrographs showing effects of CDP-choline treatment on ultrastructure of ATII cell lamellar bodies (composed of surfactant lipids and proteins). Relative to mock-infected controls, lamellar bodies in ATII cells from influenza A/WSN/33 (H1N1)-infected mice are smaller and have disordered lamellae.\nFIG. 15 is a group of 3 transmission electron micrographs showing effects of influenza infection on ultrastructure of ATII cell mitochondria (Mi). Relative to mock-infected controls (left), Mi in ATII cells from A/WSN/33 (H1N1)-infected mice (center) are fewer in number, less electron dense, and have disordered membranes and cristae."}, "influenza-infected mice [3]": {"test_system": "influenza-infected mice", "assay": "Effect of influenza infection and CDP-choline treatment on lung inflammation", "assay_type": "in vivo", "conditions": "day 6 flu; 100 μg/mouse i.p. daily from 1-5 days post-infection"}, "[4]": {"test_system": "alveolar type II (ATII) epithelial cells isolated 6 days post-influenza infection", "assay": "Effect of influenza infection and CDP-choline treatment on mitochondrial function (Seahorse MitoStress test on isolated ATII cells)", "assay_type": "in vivo, mouse", "experimental": "FIG. 17 is a plot showing effect of daily i.p. treatment with CDP-choline (CDP-CHO, 100 μg/mouse) from 1-5 days post-influenza infection on basal O2 consumption rate (OCR) of alveolar type II (ATII) epithelial cells isolated at 6 days post-mock infection or 6 days post-influenza infection and OCR after subsequent treatment of the same ATII cells with oligomycin (1 μM). **=P<0.005, #=P<0.001.\nFIG. 18 is a plot showing effect of daily i.p. treatment with CDP-choline (CDP-CHO, 100 μg/mouse) from 1-5 days post-influenza infection on ATP production, non-mitochondrial (non-mt) respiration, and proton (H^+) leak of alveolar type II (ATII) epithelial cells isolated at 6 days post-mock infection or 6 days post-influenza infection. *=P<0.05, #=P<0.001."}, "[5]": {"test_system": "mice with ARDS induced by intranasal bleomycin", "assay": "Bleomycin-induced ARDS in mice, i.p. liponucleotide treatment", "assay_type": "in vivo", "conditions": "day 7 after intranasal bleomycin 0.1 mg/mouse; daily i.p. from days 1-6"}, "influenza-infected mice [6]": {"test_system": "influenza-infected mice", "assay": "Treatment with CDP-choline precursors (choline, CTP) in influenza-infected mice, arterial oxygenation", "assay_type": "in vivo", "conditions": "day 6 post-influenza infection; daily i.p. 100 μg/mouse from 1-5 days post-infection; compared with CDP-choline", "experimental": "FIG. 16 is a plot showing effect of daily i.p. treatment with choline (100 μg/mouse), cytidine triphosphate (CTP, 100 μg/mouse), and choline+CTP from 1-5 days post-influenza infection on mouse O2 sats (SaO2) at day 6 post-influenza infection."}, "[7]": {"conditions": "influenza-infected mice, 100 μg/mouse i.p. on day 5 only"}, "[8]": {"conditions": "influenza-infected mice, i.p. daily from 1-5 days post-infection"}, "[9]": {"conditions": "influenza-infected mice, i.p. daily from 1-5 days post-infection, CDP-CHO/CDP-ETH 100 μg/mouse, CDP-DAG 10 μg/mouse"}, "[10]": {"conditions": "day 6 flu, 100 μg/mouse i.p. daily from 1-5 days post-infection"}, "[11]": {"conditions": "ATII cells isolated 6 days post-influenza infection, Seahorse MitoStress, effect on influenza-induced impairment"}},
  "note": "“Also recorded” adds a separate entry of the source. Marks after values point to notes of the source that are not given here.",
  "data": [
    {"smiles": "C[N+](C)(C)CCOP(=O)(O)OP(=O)(O)OC[C@H]1O[C@@H](n2ccc(N)nc2=O)C(O)C1O", "note": "(some centres unmarked) [CDP-CHO, Cytidine diphosphate-choline]", "values": [
      {"measurement": "PaO2 equivalent after treatment", "setting": "[1]; equivalent of SaO2 increase, from approximately 65 mmHg", "value": "approximately 85 mmHg"},
      {"measurement": "O2 carrying capacity of blood (CaO2) after treatment", "setting": "[1]; equivalent of SaO2 increase, from approximately 88%", "value": "approximately 97 % of normal"},
      {"measurement": "cardiac function", "setting": "[1]; influenza-infected mice", "value": "improved cardiac function"},
      {"measurement": "effects of single dose treatment late in infection versus daily treatment", "setting": "[1]; influenza-infected mice", "value": "as good as those of daily treatment"},
      {"measurement": "lung function", "setting": "[1]; influenza-infected mice", "value": "better lung function"},
      {"measurement": "pulmonary edema", "setting": "[1]; influenza-infected mice", "value": "reduced pulmonary edema"},
      {"measurement": "CST", "setting": "[1]; [7]", "value": "0.05 ± 0.006"},
      {"measurement": "HR (bpm)", "setting": "[1]; [7]", "value": "550 ± 10", "unit": "bpm"},
      {"measurement": "RBASAL", "setting": "[1]; [7]", "value": "1.63 ± 0.22"},
      {"measurement": "SaO2 (%)", "setting": "[1]; [7]", "value": "92.9 ± 1.5", "unit": "%"},
      {"measurement": "WET:DRY", "setting": "[1]; [7]", "value": "6.2 ± 0.2"},
      {"measurement": "CST", "setting": "[1]; [8]", "value": "0.05 ± 0.002"},
      {"measurement": "HR (bpm)", "setting": "[1]; [8]", "value": "570 ± 10", "unit": "bpm"},
      {"measurement": "RBASAL", "setting": "[1]; [8]", "value": "1.96 ± 0.12"},
      {"measurement": "WET:DRY", "setting": "[1]; [8]", "value": "6.2 ± 0.4"},
      {"measurement": "SaO2 (%)", "setting": "[1]; [9]", "value": "93.5 ± 1.0", "unit": "%"},
      {"measurement": "SaO2 after treatment", "setting": "[1]; influenza-infected mice, increased from approximately 85%", "value": "approximately 96%"},
      {"measurement": "ATII CELL AREA (μm^2)", "setting": "[2]; [10]", "value": "53.64 ± 5.63* μm^2"},
      {"measurement": "LAMELLAR BODIES/CELL", "setting": "[2]; [10]", "value": "8.1 ± 1.16"},
      {"measurement": "LAMELLAR BODY AREA (μm^2)", "setting": "[2]; [10]", "value": "0.41 ± 0.04* μm^2"},
      {"measurement": "MITOCHONDRIAL/CELL", "setting": "[2]; [10]", "value": "14.5 ± 1.78"},
      {"measurement": "MIT[…] (μm^2)", "setting": "[2]; [10]", "value": "0.34 ± 0.01* μm^2"},
      {"measurement": "ATII cell lamellar body morphology", "setting": "[2]; transmission electron micrographs, A/WSN/33 (H1N1)-infected mice", "value": "improves lamellar body morphology"},
      {"measurement": "ATII cell mitochondria (Mi) morphology", "setting": "[2]; transmission electron micrographs, A/WSN/33 (H1N1)-infected mice, listed as CDP-choline", "value": "more electron-dense and have more normal cristae; also recorded: display normal morphology"},
      {"measurement": "BALF ALVEOLAR MACS (×10^6/ml)", "setting": "influenza-infected mice [3]", "value": "1.08 ± 0.21 ×10^6/ml"},
      {"measurement": "BALF NEUTROPHILS (×10^6/ml)", "setting": "influenza-infected mice [3]", "value": "0.45 ± 0.07 ×10^6/ml"},
      {"measurement": "BALF PC", "setting": "influenza-infected mice [3]", "value": "1.61 ± 0.45"},
      {"measurement": "VIRAL TITER (log PFU/g)", "setting": "influenza-infected mice [3]", "value": "5.32 ± 0.07", "unit": "log PFU/g"},
      {"measurement": "basal O2 consumption rate (OCR), mitochondrial oxidative phosphorylation", "setting": "[4]; ATII cells isolated 6 days post-influenza infection, 100 μg/mouse i.p. daily days 1-5, effect on influenza-induced impairment", "value": "reversed"},
      {"measurement": "ATP production", "setting": "[4]; [11]", "value": "reversed"},
      {"measurement": "non-mitochondrial (non-mt) respiration", "setting": "[4]; [11]", "value": "reversed"},
      {"measurement": "proton (H+) leak (coupling efficiency)", "setting": "[4]; [11]", "value": "reversed"},
      {"measurement": "OCR after oligomycin (ATP synthase activity)", "setting": "[4]; ATII cells isolated 6 days post-influenza infection, oligomycin 1 μM, effect on influenza-induced impairment", "value": "reversed"},
      {"measurement": "MITOCHONDRIAL MEMBRANE POTENTIAL (ψm; DilC1(5) MCF)", "setting": "[4]; [10]", "value": "10.14 ± 2.3*"},
      {"measurement": "MIT[…] PRODUCTION", "setting": "[4]; [10]", "value": "36.91 ± 6.82#"},
      {"measurement": "mouse O2 sats (SaO2), hypoxemia", "setting": "[5]", "value": "can attenuate hypoxemia"},
      {"measurement": "mouse weight loss (% of starting body weight), cachexia", "setting": "[5]", "value": "no such beneficial effect"}
    ]},
    {"smiles": "NCCOP(=O)(O)OP(=O)(O)OC[C@H]1O[C@@H](n2ccc(N)nc2=O)[C@H](O)[C@@H]1O", "note": "[CDP-ETH, CDP-ethanolamine]", "values": [
      {"measurement": "HR (bpm)", "setting": "[1]; [8]", "value": "540 ± 20", "unit": "bpm"},
      {"measurement": "WET:DRY", "setting": "[1]; [8]", "value": "6.5 ± 0.4"},
      {"measurement": "SaO2 (%)", "setting": "[1]; [9]", "value": "91.1 ± 1.5", "unit": "%"}
    ]},
    {"smiles": "CCCCCCCCCCCCCCCC(=O)OC[C@H](COP(=O)(O)OP(=O)(O)OC[C@H]1O[C@@H](n2ccc(N)nc2=O)[C@H](O)[C@@H]1O)OC(=O)CCCCCCCCCCCCCCC", "note": "[CDP-DAG, CDP-diacylglycerol]", "values": [
      {"measurement": "HR (bpm)", "setting": "[1]; [8]", "value": "600 ± 10", "unit": "bpm"},
      {"measurement": "WET:DRY", "setting": "[1]; [8]", "value": "5.8 ± 0.1"},
      {"measurement": "SaO2 (%)", "setting": "[1]; [9]", "value": "95.2 ± 1.6", "unit": "%"}
    ]},
    {"smiles": "Nc1ccn([C@@H]2O[C@H](COP(=O)(O)OP(=O)(O)OP(=O)(O)O)[C@@H](O)[C@H]2O)c(=O)n1", "note": "[CTP, cytidine triphosphate]", "values": [
      {"measurement": "beneficial effect on arterial oxygenation, mouse O2 sats (SaO2)", "setting": "influenza-infected mice [6]", "value": "cannot be reproduced"}
    ]}
  ]
}
